The record followed here is US20230022724A1, “NOVEL IMIDAZOPYRAZINE DERIVATIVES” (Hoffmann-La Roche Inc., priority 2018, published 2023).

What is called IC90 is the concentration needed for an effect of 90%.

SMILES strings stand for the structures. Counter-ions that a name gives are not always drawn.

The subject of one test is Acinetobacter baumannii ATCC17978. Description: Antimicrobial susceptibility testing: 90% growth inhibitory concentration (IC90) determination. Type of test: cell-based. Conditions: 90% growth inhibitory concentration, Acinetobacter baumannii ATCC17978, Iso-Sensitest broth, OD 600 nm over 16 h; read-out: ATCC17978 IC90. The procedure:
The in vitro antimicrobial activity of the compounds was determined according to the following procedure:
The assay used a 10-points Iso-Sensitest broth medium to measure quantitatively the in vitro activity of the compounds against Acinetobacter baumannii ATCC17978 and Acinetobacter baumannii ATCC17961.
Stock compounds in DMSO were serially twofold diluted (e.g. range from 50 to 0.097 μM final concentration) in 384 wells microtiter plates and inoculated with 49 μl the bacterial suspension in Iso-Sensitest medium to have a final cell concentration of ˜5×10^(5) CFU/ml in a final volume/well of 50 ul/well. Microtiter plates were incubated at 35±2° C.
Bacterial cell growth was determined with the measurement of optical density at λ=600 nm each 20 minutes over a time course of 16 h. Growth inhibition was calculated during the logarithmic growth of the bacterial cells with determination of the concentration inhibiting 50% (IC50) and 90% (IC90) of the growth.
Table 1 provides the 90% growth inhibitory concentrations (IC90) in micromoles per liter of the compounds of present invention obtained against the strain Acinetobacter baumannii ATCC17978 and Acinetobacter baumannii ATCC17961.
For `CNCC(=O)N1CCN(C(=O)c2ccc(Nc3nccn4c(-c5ccc(OC)c(F)c5)cnc34)cc2Cl)CC1` [Example 40, 1-(4-(2-chloro-4-((3-(3-fluoro-4-methoxyphenyl)imidazo [1,2-a]pyrazin-8-yl)amino)benzoyl)piperazin-1-yl)-2-(methylamino)ethanone], the IC90 turned out to be 150 nM.

`COc1ccc(-c2cnc3c(Nc4ccc(C(=O)N5CCC(C(=O)NCC6CNC6)CC5)c(Cl)c4)nccn23)cc1F` [Example 19, N-(azetidin-3-ylmethyl)-1-(2-chloro-4-((3-(3-fluoro-4-methoxyphenyl)imidazo[1,2-a]pyrazin-8-yl)amino)benzoyl)piperidine-4-carboxamide]: the IC90 came out at 300 nM.

The same test, now with this note: Acinetobacter baumannii, ATCC17978, 16 h, 90% growth inhibitory concentration, Acinetobacter baumannii ATCC17978, Iso-Sensitest broth, OD 600 nm over 16 h; read-out: ATCC17978 IC90.
With `NCC1CCN(C(=O)c2ccc(Nc3nccn4c(-c5ccc(OCC#CCO)c(F)c5)cnc34)cc2Cl)CC1` [Example 76, [4-(aminomethyl)piperidin-1-yl]-[2-chloro-4-[[3-[3-fluoro-4-(4-hydroxybut-2-ynoxy)phenyl]imidazo[1,2-a]pyrazin-8-yl]amino]phenyl]methanone], the IC90 came to 240 nM.

As to `COc1ccc(-c2cnc3c(Nc4ccc(C(=O)N5CCN(C6CCNC6)CC5)c(Cl)c4)nccn23)cc1F` (stereo not drawn) [Example 71, [2-chloro-4-[[3-(3-fluoro-4-methoxyphenyl)imidazo[1,2-a]pyrazin-8-yl]amino]phenyl]-(4-pyrrolidin-3-ylpiperazin-1-yl)methanone;hydrochloride], the IC90 is 280 nM.

As for `COc1ccc(-c2cnc3c(Nc4ccc(C(=O)N5CCC(N(C)C)C5)cc4)nccn23)cc1` (stereo not drawn) [Example 66, [3-(dimethylamino)pyrrolidin-1-yl]-[4-[[3-(4-methoxyphenyl)imidazo[1,2-a]pyrazin-8-yl]amino]phenyl]methanone], the IC90 came to 5900 nM.

On to `CN(C)CCN1CCN(C(=O)c2ccc(Nc3nccn4c(-c5ccc(OCC#N)c(F)c5F)cnc34)cc2Cl)CC1` [Example 10, 2-(4-(8-((3-chloro-4-(4-(2-(dimethylamino)ethyl)piperazine-1-carbonyl)phenyl)amino)imidazo[1,2-a]pyrazin-3-yl)-2,3-difluorophenoxy)acetonitrile], for which the IC90 was found to be 64 nM.

With `COc1ccc(-c2cnc3c(Nc4ccc(C(=O)N5CCC(C(=O)NCC(O)CN)CC5)c(Cl)c4)nccn23)cc1F` (stereo not drawn) [Example 60, N-(3-amino-2-hydroxypropyl)-1-[2-chloro-4-[[3-(3-fluoro-4-methoxyphenyl)imidazo[1,2-a]pyrazin-8-yl]amino]benzoyl]piperidine-4-carboxamide;hydrochloride], the IC90 came out at 140 nM.

As to `CN(C)CCN1CCN(C(=O)c2ccc(Nc3nccn4c(-c5ccc(OC(F)F)cc5)cnc34)cc2Cl)CC1` [Example 69, [2-chloro-4-[[3-[4-(difluoromethoxy)phenyl]imidazo[1,2-a]pyrazin-8-yl]amino]phenyl]-[4-[2-(dimethylamino)ethyl]piperazin-1-yl]methanone], the IC90 was 140 nM.

As for `COc1ccc(-c2cnc3c(Nc4ccc(C(=O)N5CC5)c(Cl)c4)nccn23)c(F)c1F` [Example 9, aziridin-1-yl(2-chloro-4-((3-(2,3-difluoro-4-methoxyphenyl)imidazo[1,2-a]pyrazin-8-yl)amino)phenyl)methanone], the IC90 was 1600 nM.

Turning to `N#CCOc1ccc(-c2cnc3c(Nc4ccc(C(=O)N5CCC(c6nnn[nH]6)CC5)c(Cl)c4)nccn23)c(F)c1F` [Example 13, 2-[4-[8-[3-chloro-4-[4-(1H-tetrazol-5-yl)piperidine-1-carbonyl]anilino]imidazo[1,2-a]pyrazin-3-yl]-2,3-difluoro-phenoxy]acetonitrile;2,2,2-trifluoroacetic acid], the IC90 was 280 nM.

Take `COc1ccc(-c2cnc3c(Nc4ccc(C(=O)N5CCC(O)CC5)cc4)nccn23)cc1Cl` [Example 62, [4-[[3-(3-chloro-4-methoxyphenyl)imidazo[1,2-a]pyrazin-8-yl]amino]phenyl]-(4-hydroxypiperidin-1-yl)methanone]: the IC90 was found to be 900 nM.

As for `N#CCOc1ccc(-c2cnc3c(Nc4ccc(C(=O)N5CCN(CCN6CCC(C(N)=O)C6)CC5)c(Cl)c4)nccn23)c(F)c1F` (stereo not drawn) [Example 89], the IC90 was 42 nM.

For `COc1ccc(-c2cnc3c(Nc4ccc(C(=O)N5CCN(C)CC5)cc4)nccn23)cc1Cl` [Example 74, [4-[[3-(3-chloro-4-methoxyphenyl)imidazo[1,2-a]pyrazin-8-yl]amino]phenyl]-(4-methylpiperazin-1-yl)methanone], the IC90 amounted to 2700 nM.

As for `CN(C)CCN1CCN(C(=O)c2ccc(Nc3nccn4c(-c5ccc(OCC#N)c(F)c5F)cnc34)cc2Br)CC1` [Example 78, 2-[4-[8-[3-bromo-4-[4-[2-(dimethylamino)ethyl]piperazine-1-carbonyl]anilino]imidazo[1,2-a]pyrazin-3-yl]-2,3-difluorophenoxy]acetonitrile; formic acid], the IC90 came out at 280 nM.

Turning to `N#CCOc1ccc(-c2cnc3c(Nc4ccc(C(=O)N5CCC(n6cnnc6)CC5)c(Cl)c4)nccn23)c(F)c1F` [Example 24, 2-[4-[8-[3-chloro-4-[4-(1,2,4-triazol-4-yl)piperidine-1-carbonyl]anilino]imidazo[1,2-a]pyrazin-3-yl]-2,3-difluoro-phenoxy]acetonitrile], the IC90 is 150 nM.

In the case of `CN(C)CCNC1CCN(C(=O)c2ccc(Nc3nccn4c(-c5ccc(OCC#N)c(F)c5Cl)cnc34)cc2Cl)CC1` [Example 25, 2-[3-chloro-4-[8-[3-chloro-4-[4-[2-(dimethylamino)ethylamino]piperidine-1-carbonyl]anilino]imidazo[1,2-a]pyrazin-3-yl]-2-fluorophenoxy]acetonitrile; 2,2,2-trifluoroacetic acid], the IC90 worked out at 79 nM.

For the molecule `COc1ccc(-c2cnc3c(Nc4ccc(C(=O)N5CCC(O)(CC(=O)N(C)C)CC5)c(Cl)c4)nccn23)cc1F` [Example 106, 2-(1-(2-chloro-4-((3-(3-fluoro-4-methoxyphenyl)imidazo[1,2-a]pyrazin-8-yl)amino)benzoyl)-4-hydroxypiperidin-4-yl)-N,N-dimethylacetamide], the IC90 stood at 540 nM.

As for `COc1ccc(-c2cnc3c(Nc4ccc(C(=O)N5CCC(CCN)CC5)c(Cl)c4)nccn23)c(F)c1F` [Example 7, (4-(2-aminoethyl)piperidin-1-yl)(2-chloro-4-((3-(2,3-difluoro-4-methoxyphenyl)imidazo[1,2-a]pyrazin-8-yl)amino)phenyl)methanone], the IC90 worked out at 100 nM.

Turning to `N#CCOc1cc(Cl)c(-c2cnc3c(Nc4ccc(C(=O)N5CCC(C(=O)N6CCNC(CO)C6)CC5)c(Cl)c4)nccn23)cc1F` (stereo not drawn) [Example 15, 2-[5-chloro-4-[8-[3-chloro-4-[4-[3-(hydroxymethyl)piperazine-1-carbonyl]piperidine-1-carbonyl]anilino]imidazo[1,2-a]pyrazin-3-yl]-2-fluoro-phenoxy]acetonitrile; 2,2,2-trifluoroacetic], the IC90 worked out at 110 nM.

For the molecule `N#CCOc1ccc(-c2cnc3c(Nc4ccc(C(=O)N5CCN(CCN6CC(C(N)=O)C6)CC5)c(Cl)c4)nccn23)c(F)c1F` [Example 94, 1-[2-[4-[2-chloro-4-[[3-[4-(cyanomethoxy)-2,3-difluorophenyl]imidazo[1,2-a]pyrazin-8-yl]amino]benzoyl]piperazin-1-yl]ethyl]azetidine-3-carboxamide;2,2,2-trifluoroacetic acid], the IC90 was determined as 54 nM.

The test is the same for the next values; noted with them: Acinetobacter baumannii, ATCC17978, 16 h, read-out: ATCC17978 IC90.
Turning to `COc1ccc(-c2cnc3c(Nc4ccc(C(=O)N5CCN(C(=O)C(O)CN)CC5)c(Cl)c4)nccn23)cc1F` (stereo not drawn) [Example 56, 3-amino-1-[4-[2-chloro-4-[[3-(3-fluoro-4-methoxyphenyl)imidazo[1,2-a]pyrazin-8-yl]amino]benzoyl]piperazin-1-yl]-2-hydroxypropan-1-one; hydrochloride], the IC90 was found to be 240 nM.

Consider `N#CCOc1ccc(-c2cnc3c(Nc4ccc(C(=O)N5CCN(CCN6CCCC6CO)CC5)c(Cl)c4)nccn23)c(F)c1F` (stereo not drawn) [Example 93, 2-[4-[8-[3-chloro-4-[4-[2-[2-(hydroxymethyl)pyrrolidin-1-yl]ethyl]piperazine-1-carbonyl]anilino]imidazo[1,2-a]pyrazin-3-yl]-2,3-difluorophenoxy]acetonitrile; 2,2,2-trifluoroacetic acid], for which the IC90 worked out at 53 nM.

In the case of `N#CCOc1ccc(-c2cnc3c(Nc4ccc(C(=O)N5CCC(C(=O)N6CCN[C@H](CO)C6)CC5)c(Cl)c4)nccn23)c(F)c1F` [Example 87, 2-[4-[8-[3-chloro-4-[4-[(3S)-3-(hydroxymethyl)piperazine-1-carbonyl]piperidine-1-carbonyl]anilino]imidazo[1,2-a]pyrazin-3-yl]-2,3-difluorophenoxy]acetonitrile; formic acid], the IC90 was found to be 52 nM.

As for `CN(C)C1CCN(CCN2CCN(C(=O)c3ccc(Nc4nccn5c(-c6ccc(OCC#N)c(F)c6F)cnc45)cc3Cl)CC2)CC1` [Example 101, 2-[4-[8-[3-chloro-4-[4-[2-[4-(dimethylamino)piperidin-1-yl]ethyl]piperazine-1-carbonyl]anilino]imidazo[1,2-a]pyrazin-3-yl]-2,3-difluorophenoxy]acetonitrile; 2,2,2-trifluoroacetic acid], the IC90 stood at 170 nM.
